Measured values: patent US11551827B2, “Perfluorinated 1-alkoxypropenes in dielectric fluids and electrical devices” (priority 2017, dated 2023)

Experiment: Gaseous dielectric breakdown voltage measurement (Hipotronics OC60D-A dielectric strength tester)
Format: physicochemical
Settings: for Dielectric breakdown voltage: gas, 0.1 inch (2.5 mm) gap, copper electrodes; for Performance as electrical insulator and interrupter (in words): judged from the dielectric breakdown voltage values in Tables 2 and 3
Protocol: The gaseous dielectric breakdown voltages of PE-1, PE-2, CE-1, CE-2, and CE-3 were measured experimentally using a Hipotronics OC60D-A dielectric strength tester (available from Hipotronics, Brewster, N.Y., USA), which was modified to allow measurements on low pressure gases. The electrode configuration consisted of two copper electrodes separated by a 0.1 inch (2.5 mm) gap housed in a gas tight PFTE (polytetrafluoroethylene) test chamber. The test chamber was first evacuated and then PE-1, PE-2, CE-1, CE-2, or CE-3 was charged to full vapor pressure and evacuated to the measured pressures indicated in Tables 2 and 3. The dielectric breakdown voltage (measured in kV) was measured after each evacuation to determine the dielectric strength and the results are summarized in Tables 2 and 3.

| SMILES | Dielectric breakdown voltage (pressure 13.9 kPa) [kV] | Dielectric breakdown voltage (pressure 27.6 kPa) [kV] | Dielectric breakdown voltage (pressure 41.4 kPa) [kV] | Dielectric breakdown voltage (pressure 55.2 kPa) [kV] | Dielectric breakdown voltage (pressure 69.0 kPa) [kV] | Dielectric breakdown voltage (pressure 82.8 kPa) [kV] | Dielectric breakdown voltage (pressure 110 kPa) [kV] | Dielectric breakdown voltage (pressure 124 kPa) [kV] | Dielectric breakdown voltage (pressure 139 kPa) [kV] | Dielectric breakdown voltage (pressure 20 kPa) [kV] | Dielectric breakdown voltage (pressure 40 kPa) [kV] | Dielectric breakdown voltage (pressure 60 kPa) [kV] | Dielectric breakdown voltage (pressure 80 kPa) [kV] | Dielectric breakdown voltage (pressure 100 kPa) [kV] | Dielectric breakdown voltage (pressure 120 kPa) [kV] | Dielectric breakdown voltage (pressure 140 kPa) [kV] | Performance as electrical insulator and interrupter (in words) |
| --- | --- | --- | --- | --- | --- | --- | --- | --- | --- | --- | --- | --- | --- | --- | --- | --- | --- |
| FC1(F)C(F)(F)C1(F)F [CE-3, Perfluorocyclopropane] | 4.6 | 6.4 | 8.0 | 9.5 | 10.6 | 12.0 | 14.7 | 16.0 | 17.1 |  |  |  |  |  |  |  |  |
| FC(OC(F)(F)F)=C(F)C(F)(F)F [PE-2, 1,2,3,3,3-Pentafluoro-1-(Perfluoromethoxy)Prop-1-Ene] |  |  |  |  |  |  |  |  |  | 8.8 | 10.9 | 15.6 | 19.5 | 22.7 | 25.7 | 28.9 | excellent electrical insulators and interrupters |
| FC(F)=C(F)C(F)(F)F [CE-1, Hexafluoropropene] |  |  |  |  |  |  |  |  |  | 8.8 | 9.8 | 11.5 | 13.9 | 16.3 | 18.4 | 20.1 |  |
| FS(F)(F)(F)(F)F [CE-2, Sulfur hexafluoride] | 4.6 | 5.4 | 7.8 | 9.5 | 10.9 | 12.5 | 15.3 | 16.7 | 18.0 |  |  |  |  |  |  |  |  |
| FC(OC(F)(F)C(F)(F)F)=C(F)C(F)(F)F [PE-1, 1,2,3,3,3-Pentafluoro-1-(Perfluoroethoxy)Prop-1-Ene] |  |  |  |  |  |  |  |  |  | 8.7 | 13.5 | 18.7 |  |  |  |  | excellent electrical insulators and interrupters |
